# Source: US11452731B2, “Method of treating and preventing loss of cognition” (ENDORECHERCHE, INC., priority 2009, dated 2022)
# Counter-ions that a name gives are not always drawn. Marks after values point to notes of the source that are not given here.
# Legend:
# [1] = Uterine and vaginal weight in ovariectomized BALB/c mice treated orally for 9 days with or without estrone (Example 3); format: in vivo; settings: OVX + E1 alone
# Protocol: Female BALB/c mice (BALB/cAnNCrlBR) weighing 18-20 g were obtained from Charles-River, Inc. (St-Constant, Quebec, Canada) and housed 5 per cage in a temperature (23±1° C.)- and light (12 h light/day, lights on at 7:15)-controlled environment. The mice were fed rodent chow and tap water ad libitum. The animals were ovariectomized (OVX) under Isoflurane anesthesia via bilateral flank incisions and randomly assigned to groups of 10 animals. Ten mice were kept intact as controls.
# In the second experiment (Table 6), TSE 424 was administered orally by gavage once daily at doses of 1, 3, 10 or 30 μg/animal for 9 days, starting 2 days after ovariectomy. In both experiments, to evaluate the antiestrogenic activity, treatment with estrone (E1, […], s.c. injection, twice daily) was started 5 days post-ovariectomy and was administered for a 6 day-period. Compounds were dissolved in ethanol (4% final concentration) and administered in 0.4% methylcellulose. Mice in the intact and OVX control groups received the vehicle alone (4% ETOH-0.4% methylcellulose) during the 9-day period. The animals were killed by exsanguination at the abdominal aorta on the 11th morning following ovariectomy. The uteri and vagina were rapidly dissected, weighed, and kept in 10% buffered formalin for further histologic examination.
# [2] = system: ZR-75-1 human breast cancer xenografts; test: Growth and response of human ZR-75-1 breast tumor xenografts in estrone-supplemented OVX nude mice, DHEA and/or EM-800 for 9.5 months (Example 1); format: in vivo
# [3] = Uterine, vaginal and body weight in estrone-supplemented OVX nude mice (Example 1); format: in vivo; settings: estrone alone
# Protocol: DHEA was dissolved in 50% ethanol 50% propylene glycol. […] Tumors were measured once a week with Vernier calipers.
# [4] = system: ZR-75-1 human breast cancer xenografts; test: Growth and response of human ZR-75-1 breast tumors in OVX nude mice, 7 antiestrogens for 161 days with or without estrone (Example 8); format: in vivo
# Protocol: ZR-75-1 human breast cancer cells were obtained from the American Type Culture Collection (Rockville, Md.) and cultured in phenol red-free RPMI-1640 medium. […] (Saint-Constant, Québec, Canada). The mice (5 per cage) were housed in vinyl cages equipped with air filter lids, which were kept in laminar airflow hoods and maintained under pathogen-limiting conditions. The photoperiod was 12 hours of light and 12 hours of darkness (lights on at 07:15). Cages, bedding and food (Agway Pro-Lab R-M-H Diet #4018) were autoclaved before use. Water was autoclaved and provided ad libitum. Bilateral ovariectomy was performed under isoflurane-induced anesthesia. […] Randomization and treatments were started one week later. […] The estrone implants were then removed from the animals in the ovariectomized control group (OVX) and in groups that were to receive the antiestrogen alone. […] Tamoxifen was purchased from […]) while toremifene citrate was purchased from Orion (Espoo, Finland). […] The antiestrogen suspensions at the appropriate concentration were prepared each month, stored at 4° C. and used under constant agitation. Powder stock were hermetically stored at 4° C. […] Two perpendicular diameters were recorded and tumor area (mm2) was calculated using the formula: […] Tumor response was assessed at the end of the study or at death of each animal, if it occurred during the course of the experiment. In this case, only data of mice that survived for at least half of the study ([…]) were used in the tumor response analysis.
# [5] = Endometrial epithelium thickness in OVX nude mice after 161 days of antiestrogen (Example 8); format: in vivo
# Text: The 17 groups included two control groups (OVX and OVX+Estrone), seven groups supplemented with an estrone implant and treated with an antiestrogen and eight other groups that received an antiestrogen alone. The estrone implants were then removed from the animals in the ovariectomized control group (OVX) and in groups that were to receive the antiestrogen alone. […] Tamoxifen was purchased from […]) while toremifene citrate was purchased from Orion (Espoo, Finland). […] The antiestrogen suspensions at the appropriate concentration were prepared each month, stored at 4° C. and used under constant agitation. Powder stock were hermetically stored at 4° C. […] After 161 days of treatment, the remaining animals were anesthetized with isoflurane and killed by exsanguination. […] The uteri were prepared to evaluate endometrial thickness by image analysis performed with Image Pro-Plus (Media Cybernetics, Maryland, USA). […] Hematoxylin- and eosin-stained sections of mice uteri were analyzed. […] Mean epithelial cell height was measured in all animals of each group.
# [6] = 3-month treatment of ovariectomized rats: lumbar spine BMD, total body fat, serum cholesterol, ALP (Example 4, experiment 1); format: in vivo, rat; settings: OVX rats, 3 months
# Protocol: (§1) Ten to twelve week-old female Sprague-Dawley rats (Crl:CD(SD)Br) (Charles River Laboratory, St-Constant, Canada) weighing approximately 220-270 g at start of treatment were used. The animals were acclimatized to the environmental conditions (temperature: 22±3° C.; humidity: 50±20%; 12-h light-12-h dark cycles, lights on at 07:15 h) for at least 1 week before starting the experiments. The animals were housed individually and were allowed free access to tap water and a pelleted certified rodent feed (Lab Diet 5002, Ralston Purina, St-Louis, Mo.). Experiments were conducted in an animal facility approved by the Canadian Council on Animal Care (CCAC) and the Association for Assessment and Accreditation of Laboratory Animal Care (AAALAC) in accordance with the CCAC Guide for Care and Use of Experimental Animals.
# On day 1 of the study, the animals of the appropriate groups were bilaterally ovariectomized (OVX) under isoflurane anesthesia. The DHEA was applied topically on the dorsal skin as a solution in 50% ethanol-50% propylene glycol while the other tested compounds were administered as suspension in 0.4% methylcellulose by oral gavage. Treatments were initiated on day 2 of the study and were performed once daily during 3 months.
# After 3 months (experiment 1) or 26 weeks (experiment 2) of treatment, individual rats under Isoflurane anesthesia had their whole body skeleton and lumbar spine scanned using dual energy x-ray absorptiometry (DEXA; QDR 4500A, Hologic, Waltham, Mass.) and a Regional High Resolution Scan software. The bone mineral density (BMD) of the lumbar spine (vertebrae L2 to L4) and the total body composition (fat percentage) were determined.
# After 3 months (experiment 1) or 26 weeks (experiment 2) of treatment, blood samples were collected at the jugular vein from overnight fasted animals (under Isoflurane anesthesia). Samples were processed for serum preparation and frozen at −80° C. until assay. Serum cholesterol levels and alkaline phospatase activity (ALP) were determined using the Boehringer Mannheim Diagnostic Hitachi 911 Analyzer (Boehringer Mannheim Diagnostic Laboratory Systems).
# [7] = system: human Ishikawa cells; test: Alkaline phosphatase activity in human endometrial adenocarcinoma Ishikawa cells (Example 6); settings: for Emax: read-out: Maximal stimulation of alkaline phosphatase % of 1 nM E2 stimulation
# [8] = 12-month treatment of ovariectomized rats with DHEA alone or with Flutamide or EM-800: bone histomorphometry, bone markers, serum lipids; format: in vivo, rat; settings: added to DHEA, OVX rats, 12 months
# [9] = 5-week treatment of ovariectomized rats with SERMs alone or with DHEA: BMD of lumbar spine, femur, tibia (Example 5); format: in vivo, rat; settings: OVX rats, 5 weeks
# Protocol: as §1
# On day 1 of the study, the animals of the appropriate groups were bilaterally ovariectomized (Ovx) under isoflurane anesthesia. The DHEA was applied topically on the dorsal skin as a solution in 50% ethanol-50% propylene glycol while the tested SERMs were administered as suspension in 0.4% methylcellulose by oral gavage. Treatments were initiated on day 2 of the study and were performed once daily during 5 weeks.
# After 5 weeks of treatment, individual rats under Isoflurane anesthesia had their lumbar spine, femur and tibia scanned using dual energy x-ray absorptiometry (DEXA; QDR 4500A, Hologic, Waltham, Mass.) and a Regional High Resolution Scan software. The bone mineral density (BMD) of the lumbar spine (vertebrae L2 to L4), distal femoral metaphysis (DFM) and proximal tibial metaphysis (PTM) were determined.
# [10] = 26-week treatment of ovariectomized rats: lumbar spine BMD, total body fat, serum cholesterol, ALP (Example 4, experiment 2); format: in vivo, rat; settings: OVX rats, 26 weeks
# Protocol: Ten to twelve week-old female Sprague-Dawley rats (Crl:CD(SD)Br) (Charles River Laboratory, St-Constant, Canada) weighing approximately 220-270 g at start of treatment were used. […] The animals were housed individually and were allowed free access to tap water and a pelleted certified rodent feed (Lab Diet 5002, Ralston Purina, St-Louis, Mo.). Experiments were conducted in an animal facility approved by the Canadian Council on Animal Care (CCAC) and the Association for Assessment and Accreditation of Laboratory Animal Care (AAALAC) in accordance with the CCAC Guide for Care and Use of Experimental Animals. […] Treatments were initiated on day 2 of the study and were performed once daily during 26 weeks. In both experiments, animals not receiving a test article were treated with the appropriate vehicle alone during the same period. […] QDR 4500A, Hologic, Waltham, Mass.) and a Regional High Resolution Scan software. […] Samples were processed for serum preparation and frozen at -80° C. until assay. Serum cholesterol levels and alkaline phospatase activity (ALP) were determined using the Boehringer Mannheim Diagnostic Hitachi 911 Analyzer (Boehringer Mannheim Diagnostic Laboratory Systems).
# [11] = E2 1 mg/kg, EM-652.HCl 2.5 mg/kg, DHEA 80 mg/kg
# [12] = Ishikawa cells, 5-day incubation, 1 nM E2
# [13] = estrone-supplemented, 50 μg daily, 161 days
# [14] = Premarin 0.25 mg/kg, SERMs 2.5 mg/kg
compound,measurement,setting,value
"C[C@]12CC[C@@H]3c4ccc(O)cc4CC[C@H]3[C@@H]1CCC2=O [E1, estrone]",UTERINE WEIGHT,[1],118.3 ± 6.0 mg
same,VAGINAL WEIGHT,[1],53.4 ± 2.8 mg
same,Category of response: Complete (%),[2]; E1 0.5 μg alone,0 (0) %
same,Category of response: Complete (Number),[2]; E1 0.5 μg alone,0 (0)
same,Category of response: Partial (%),[2]; E1 0.5 μg alone,0 (0) %
same,Category of response: Partial (Number),[2]; E1 0.5 μg alone,0 (0)
same,Category of response: Progression (%),[2]; E1 0.5 μg alone,87.5%
same,Category of response: Progression (Number),[2]; E1 0.5 μg alone,14
same,Category of response: Stable (%),[2]; E1 0.5 μg alone,12.5%
same,Category of response: Stable (Number),[2]; E1 0.5 μg alone,2
same,Category of response: Complete (%),"[2]; E1 0.5 μg alone, listed as estrone",0%
same,Average tumor weight at end of experiment,[2]; estrone 0.5 μg alone (control E1-supplemented OVX mice),1.12 ± 0.26 g
same,increase in ZR-75-1 tumor size,"[2]; estrone 0.5 μg s.c. daily alone, 291 days (9.5 months)",9.4 fold
same,UTERINE WEIGHT,[3],132 ± 8 mg
same,VAGINAL WEIGHT,[3],31 ± 2 mg
same,increase in ZR-75-1 tumor size,"[4]; Estrone alone (OVX+E1), 23 weeks",707%
CC/C(=C(\c1ccccc1)c1ccc(/C=C/C(=O)O)cc1)c1ccccc1 [GW 5638],inhibition of the stimulatory effect of estrone on epithelial height,"[5]; 50 μg daily oral, estrone stimulation",24%
same,"height of uterine epithelial cells, % of the OVX control group value","[5]; 200 μg daily, absence of estrone",121%
same,ENDOMETRIAL EPITHELIUM THICKNESS (μm) ± SEM,"[5]; OVX + E1, antiestrogen 50 μg daily","35.30^b,d ± 0.07 μm"
same,ENDOMETRIAL EPITHELIUM THICKNESS (μm) ± SEM,"[5]; OVX without E1, antiestrogen 200 μg daily",22.22^a ± 0.05 μm
same,ALP (serum alkaline phosphatase activity),[6],72 ± 6 IU/L
same,CHOLESTEROL (serum),[6],1.14 ± 0.08 mmol/L
same,TOTAL FAT,[6],21.9 ± 1.4 %
same,LUMBAR SPINE BMD,[6]; [11],0.2299 ± 0.0060 g/cm^2
same,LUMBAR SPINE Prevention of Bone Loss,[6]; [11],34%
same,Emax,"[7]; Homo sapiens, Ishikawa, 120 h",7.75 ± 5.5%
same,Inhibition of 1 nM E2-induced stimulation of alkaline phosphatase IC50,[7]; [12],No inhibition
same,increase of average tumor size over baseline (agonistic effect),"[4]; absence of estrone, 200 μg daily, 161 days",did not significantly change
same,average tumor size above pretreatment values,"[4]; estrone-stimulated, 50 μg oral daily, 23 weeks",227%
same,"progressing tumors, % of tumors",[4]; [13],77%
same,"progressing tumors, number of total",[4]; [13],20 of 26
"CC(C)C(=O)Nc1ccc([N+](=O)[O-])c(C(F)(F)F)c1 [FLU, Flutamide]",reversal of the stimulatory effect of DHEA on serum alkaline phosphatase,[8],65%
"Cc1c(-c2ccc(O)cc2)n(Cc2ccc(OCCN3CCCCC3)cc2)c2ccc(O)cc12 [ERA-923, 2-(4-hydroxyphenyl)-3-methyl-1-[[4-[2-(1-piperidinyl)ethoxy]phenyl]methyl]-1H-indol-5-ol]",DISTAL FEMORAL METAPHYSIS (DFM) BMD,[9],0.2969 ± 0.0029 g/cm^2
same,DISTAL FEMORAL METAPHYSIS (DFM) Prevention of Bone Loss,[9],83%
same,PROXIMAL TIBIAL METAPHYSIS (PFM) BMD,[9],0.2805 ± 0.0034 g/cm^2
same,PROXIMAL TIBIAL METAPHYSIS (PFM) Prevention of Bone Loss,[9],91%
same,LUMBAR SPINE (L2-L4) BMD,"[9]; SERMs 2.5 mg/kg, DHEA 80 mg/kg",0.2214 ± 0.0029 g/cm^2
same,LUMBAR SPINE (L2-L4) Prevention of Bone Loss,"[9]; SERMs 2.5 mg/kg, DHEA 80 mg/kg",78%
same,IC50,"[7]; Homo sapiens, Ishikawa, 120 h, read-out: Inhibition of 1 nM E2-induced stimulation of alkaline phosphatase IC50",5.84 nM
same,Emax,"[7]; Homo sapiens, Ishikawa, 120 h",0.6%
same,Maximal inhibition of 1 nM E2-induced stimulation of alkaline phosphatase,[7]; [12],100.16 (1)
"Oc1ccc2c(c1)CC[C@H](c1ccccc1)[C@@H]2c1ccc(OCCN2CCCC2)cc1 (racemic) [Lasofoxifene, (−)-cis-(5R,6S)-6-phenyl-5-[4-(2-pyrrolidin-1-ylethoxy)phenyl]-5,6,7,8-tetrahydronaphthalen-2-ol, D-(−)-tartrate salt]",ALP,[10],116 ± 9 IU
same,CHOLESTEROL (serum),[10],0.60 ± 0.02 mmol/L
same,TOTAL FAT,[10],24.1 ± 1.3 %
same,reversal of the fat increase induced by estrogen deficiency,[10],114%
same,LUMBAR SPINE BMD,[10]; [14],0.2307 ± 0.0040 g/cm^2
same,LUMBAR SPINE Prevention of Bone Loss,[10]; [14],61%
